In ChEMBL document CHEMBL1126447 (Bioorg Med Chem Lett, 1992):

How the values were obtained:
[1] = molecular target: Acetylcholinesterase (Homo sapiens, UniProt P22303)
Description: Inhibition of acetylcholinesterase (AChE) of human red blood cell (type XIII) by modified radiometric AChE assay

[2] = molecular target: Butyrylcholinesterase (Equus caballus, UniProt Q9N1N9)
Description: Inhibition of (BChE) Butyrylcholinesterase of horse serum

[3] = molecular target: Acetylcholinesterase (Electrophorus electricus, UniProt O42275)
Chain of Acetylcholinesterase (Electrophorus electricus, UniProt O42275) (O42275 whole entry): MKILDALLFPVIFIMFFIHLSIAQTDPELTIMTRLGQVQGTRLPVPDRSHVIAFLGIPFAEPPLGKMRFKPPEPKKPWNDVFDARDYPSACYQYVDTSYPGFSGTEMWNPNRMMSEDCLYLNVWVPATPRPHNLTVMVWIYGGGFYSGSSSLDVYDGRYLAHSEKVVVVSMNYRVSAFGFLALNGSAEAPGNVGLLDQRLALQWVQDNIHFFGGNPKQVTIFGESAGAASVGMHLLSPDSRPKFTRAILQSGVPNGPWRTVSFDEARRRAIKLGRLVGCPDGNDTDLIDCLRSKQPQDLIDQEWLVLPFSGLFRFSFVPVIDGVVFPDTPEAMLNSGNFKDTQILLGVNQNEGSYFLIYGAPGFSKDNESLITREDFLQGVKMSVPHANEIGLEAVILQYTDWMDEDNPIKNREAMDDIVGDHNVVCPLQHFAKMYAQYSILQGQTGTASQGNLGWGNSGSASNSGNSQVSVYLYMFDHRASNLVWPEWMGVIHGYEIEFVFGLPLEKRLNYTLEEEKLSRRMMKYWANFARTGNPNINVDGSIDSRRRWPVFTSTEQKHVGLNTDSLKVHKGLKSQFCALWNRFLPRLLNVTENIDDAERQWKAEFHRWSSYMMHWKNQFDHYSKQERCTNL
Description: Inhibition of acetylcholinesterase (AChE) in electric eel (type V-S) by modified radiometric assay

Chain of Butyrylcholinesterase (Q9N1N9 whole entry): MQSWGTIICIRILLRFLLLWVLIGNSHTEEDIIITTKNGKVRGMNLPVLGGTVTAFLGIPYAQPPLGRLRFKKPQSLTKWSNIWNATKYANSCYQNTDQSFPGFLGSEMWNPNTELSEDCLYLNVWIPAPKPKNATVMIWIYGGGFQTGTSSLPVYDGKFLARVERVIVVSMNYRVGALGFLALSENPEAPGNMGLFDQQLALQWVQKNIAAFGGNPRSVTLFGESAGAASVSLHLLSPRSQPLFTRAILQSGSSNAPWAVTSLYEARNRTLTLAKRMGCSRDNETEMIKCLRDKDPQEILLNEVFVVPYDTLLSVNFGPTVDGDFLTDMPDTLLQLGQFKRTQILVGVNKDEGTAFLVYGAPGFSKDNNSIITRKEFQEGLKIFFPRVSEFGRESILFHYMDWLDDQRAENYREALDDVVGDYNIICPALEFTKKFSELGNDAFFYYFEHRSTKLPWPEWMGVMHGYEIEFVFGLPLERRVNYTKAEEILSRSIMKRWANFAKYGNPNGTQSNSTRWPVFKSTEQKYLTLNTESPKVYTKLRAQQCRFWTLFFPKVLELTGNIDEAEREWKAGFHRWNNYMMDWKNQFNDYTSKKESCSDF
Chain of Acetylcholinesterase (Homo sapiens, UniProt P22303) (P22303 whole entry): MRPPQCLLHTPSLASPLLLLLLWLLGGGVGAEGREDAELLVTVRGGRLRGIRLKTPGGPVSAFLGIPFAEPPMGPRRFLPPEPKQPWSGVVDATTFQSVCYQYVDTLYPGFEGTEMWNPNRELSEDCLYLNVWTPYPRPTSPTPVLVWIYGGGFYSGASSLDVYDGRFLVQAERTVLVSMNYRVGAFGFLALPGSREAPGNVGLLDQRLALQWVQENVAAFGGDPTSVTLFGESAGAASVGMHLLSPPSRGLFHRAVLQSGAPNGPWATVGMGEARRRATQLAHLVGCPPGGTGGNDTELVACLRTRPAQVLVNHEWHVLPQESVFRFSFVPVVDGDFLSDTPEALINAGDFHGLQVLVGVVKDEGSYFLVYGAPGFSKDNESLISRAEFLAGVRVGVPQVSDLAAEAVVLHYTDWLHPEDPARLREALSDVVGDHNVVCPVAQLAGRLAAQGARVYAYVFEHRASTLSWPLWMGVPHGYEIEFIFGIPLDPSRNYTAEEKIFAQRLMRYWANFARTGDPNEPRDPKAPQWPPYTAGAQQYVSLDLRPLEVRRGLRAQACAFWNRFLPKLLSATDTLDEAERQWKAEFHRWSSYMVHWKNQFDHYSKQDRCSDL

Row | Structure (SMILES) | IC50 [1] | IC50 [2] | IC50 [3]
1 | Nc1c2c(nc3ccc(Cl)cc13)CCCC2 | 743 nM | 0.7 nM | 40 nM
2 | Nc1c2c(nc3cccc(Cl)c13)CCCC2 | 9.4 nM | 12.7 nM | 4.43 nM
3 | Nc1c2c(nc3c(Cl)cccc13)C1CCC2C1 (centres undefined) | 84.3 nM | 207 nM | 493 nM
4 | Nc1c2c(nc3ccccc13)CCCC2O (centres undefined) [VELNACRINE] | – | 53.3 nM | 59.8 nM
5 | Nc1c2c(nc3cc(Cl)ccc13)CCCC2 | – | – | 2.87 nM
6 | Nc1c2c(nc3ccccc13)C1CCC2C1 (centres undefined) | – | 1.3 nM | 11.7 nM
7 | CNC(=O)Oc1ccc2c(c1)[C@]1(C)CCN(C)[C@@H]1N2C [PHYSOSTIGMINE] | – | 4670 nM | –
8 | Nc1c2c(nc3cc(Cl)ccc13)C1CCC2C1 (centres undefined) | 4.5 nM | 21.7 nM | 2.33 nM
9 | Nc1c2c(nc3c(Cl)cccc13)CCCC2 | 68.9 nM | 45 nM | 36 nM
10 | Nc1c2c(nc3cccc(Cl)c13)C1CCC2C1 (centres undefined) | 42.2 nM | 15.3 nM | 6.52 nM
